# ChEMBL document CHEMBL1152912, “Protective effects of a benzoxazine derivative against oxidized LDL-induced apoptosis and the increases of integrin beta4, ROS, NF-kappaB and P53 in human umbilical vein endothelial cells” (Bioorg Med Chem Lett, 2009)
# Active and inactive are the calls of the source. The rule behind the calls is not given here.
# Columns and labels:
# [1] = test system: HUVEC; assay: Antiapoptotic activity against low density lipoprotein-induced vascular apoptosis in HUVEC cells assessed as modulation of NF-kappaB level by lase scanning confocal microscope; format: functional, cell-based; settings: Homo sapiens
# [2] = test system: HUVEC; assay: Antiapoptotic activity against low density lipoprotein-induced apoptosis in HUVEC cells assessed as apoptotic cell after 24 hrs by TUNEL assay; format: functional, cell-based; settings: Homo sapiens
# [3] = test system: HUVEC; assay: Antiapoptotic activity against low density lipoprotein-induced apoptosis in HUVEC cells by Hoechst 33258 staining; format: functional, cell-based; settings: Homo sapiens
# [4] = test system: HUVEC; assay: Antiapoptotic activity against low density lipoprotein-induced apoptosis in HUVEC cells assessed as nuclear condensation after 24 hrs by acridin orange staining; format: functional, cell-based; settings: Homo sapiens
# [5] = test system: HUVEC; assay: Antiapoptotic activity against low density lipoprotein-induced apoptosis in HUVEC cells assessed as inhibition of integrin beta4 level at 50 uM by immunofluorescence technique; format: functional, cell-based; settings: Homo sapiens
# [6] = test system: HUVEC; assay: Antiapoptotic activity against low density lipoprotein-induced vascular apoptosis in HUVEC cells assessed as inhibition of ROS by lase scanning confocal microscope; format: functional, cell-based; settings: Homo sapiens
# [7] = test system: HUVEC; assay: Antiapoptotic activity against low density lipoprotein-induced apoptosis in HUVEC cells assessed as nuclear fragmentation after 24 hrs by acridin orange staining; format: functional, cell-based; settings: Homo sapiens
# [8] = test system: HUVEC; assay: Antiapoptotic activity against low density lipoprotein-induced vascular apoptosis in HUVEC cells assessed as translocation of NF-kappaB across the nucleus by lase scanning confocal microscope; format: functional, cell-based; settings: Homo sapiens
# [9] = test system: HUVEC; assay: Cytotoxicity against HUVEC cells assessed as reduction in low density lipoprotein-induced cell viability at 50 uM by MTT assay; format: cell-based; settings: human
# [10] = test system: HUVEC; assay: Antiapoptotic activity against low density lipoprotein-induced vascular apoptosis in HUVEC cells assessed as modulation of P53 level by lase scanning confocal microscope; format: functional, cell-based; settings: Homo sapiens
structure (smiles),measurement,setting,value
Nc1ccc2c(c1)NC(CO)CO2 (stereo not given),Activity,[1],Active
same,Activity,[2],Active
same,Activity,[3],Dose-dependent effect
same,Activity,[4],Active
same,Activity,[5],Active
same,Activity,[6],Active
same,Activity,[7],Active
same,Activity,[8],Active
same,Activity,[9],Toxic
same,Activity,[10],Active
